What was measured:
[1] = test system: 5xFAD mice; assay: qPCR and western blot of inflammation markers in 5xFAD brain; type: in vivo
Procedure: (§1) DTMB was synthesized from Daejung Chemicals (Korea) and was dissolved in dimethyl sulfoxide (Sigma Aldrich, St. Louis, MO, USA) for cell-based experiments. To evaluate the effects of DTMB on 5xFAD mice, DTMB (10 mg/kg) and vehicle (1% carboxymethylcellulose and 10% DMSO) were orally administrated to four groups (wild-type, wild-type + DTMB, 5xFAD, and 5xFAD + DTMB) with a 6 day per week for 3 months.
Cells were lysed with lysis buffer containing 50 mM Tris (pH 7.4), 140 mM NaCl, 5 mM EDTA, and a protease inhibitor tablet, followed by sonication. Lysate protein concentrations were determined using Bradford reagents (AMERSCO, MA, USA). Proteins were resolved by sodium dodecyl sulfate (SDS) polyacrylamide gel electrophoresis, transferred to nitrocellulose membranes (Pall Corporation, New York, NY, USA), and incubated with blocking buffer (5% nonfat dry milk in TBS and 0.1% Tween 20) for 30 min. Western blot analyses were performed using primary antibodies against NF-κB, NLRP3, ASC, nicastrin, pen2 (Cell Signaling Technology, Danvers, MA, USA), Aph1 (Invitrogen), amyloid C-terminal fragment (Santa Cruz Biotechnology, Dallas, TX, USA), and GAPDH (Bethyl Laboratories, Mongomery, TX, USA). Secondary antibodies of rabbit (Promega), rat, and goat (Bethyl Laboratories) were used, and detection was performed with SUPEX ECL reagent (Neuronex, Korea) and an ImageQuant LAS-4000 (GE Healthcare, MA, USA), according to the manufacturer’s instructions. The integrated blot density was quantified through ImageJ.
Total RNA was isolated using TRI Reagent (Molecular Research Center, Cincinnati, OH, USA). RNA was reverse transcribed using the ImProm-II™ Reverse Transcription System (Promega) according to the manufacturer’s instructions. For detection and quantification, a StepOnePlus Real-Time PCR System (Applied Biosystems, Foster City, CA, USA) was used with FastStart Universal SYBR Green Master (Roche, Basel, Switzerland). Real-time qPCR data were analyzed using the comparative CT method. Sample sizes were 10–15 mice per group.

[2] = target: T1, recombinant human PPARγ LBD (Homo sapiens, UniProt P37231); assay: CNBr-bead pull down assay, PPARγ LBD; type: binding; details: drug conjugated CNBr beads
T1 sequence (P37231 238-503 limits assumed): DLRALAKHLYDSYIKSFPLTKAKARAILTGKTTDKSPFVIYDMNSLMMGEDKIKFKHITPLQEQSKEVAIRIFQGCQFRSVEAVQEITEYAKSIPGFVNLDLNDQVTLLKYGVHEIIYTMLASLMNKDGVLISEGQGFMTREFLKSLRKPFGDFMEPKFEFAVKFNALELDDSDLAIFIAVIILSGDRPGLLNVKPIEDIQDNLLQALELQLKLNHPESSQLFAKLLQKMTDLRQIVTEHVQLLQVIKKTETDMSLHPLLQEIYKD
Procedure: CNBr Sepharose 4B beads were prepared and activated according to the instruction. 100 mg of CNBr activated Sepharose 4B beads were incubated with drugs or DMSO for 18 h at 4 °C. The drug conjugated beads reacted to his-tagged recombinant PPAR α, β/δ, and γ protein. After 24 h of incubation, we confirmed whether recombinant protein binds to the drug conjugated bead through western blotting experiment.

[3] = test system: 5xFAD mice; assay: Western blot and qPCR of APP and β-/γ-secretase in 5xFAD brain; type: in vivo; details: 10 mg/kg orally, 3 months
Procedure: as §1
Cells were lysed with lysis buffer containing 50 mM Tris (pH 7.4), 140 mM NaCl, 5 mM EDTA, and a protease inhibitor tablet, followed by sonication. Lysate protein concentrations were determined using Bradford reagents (AMERSCO, MA, USA). Proteins were resolved by sodium dodecyl sulfate (SDS) polyacrylamide gel electrophoresis, transferred to nitrocellulose membranes (Pall Corporation, New York, NY, USA), and incubated with blocking buffer (5% nonfat dry milk in TBS and 0.1% Tween 20) for 30 min. […] The integrated blot density was quantified through ImageJ.
Total RNA was isolated using TRI Reagent (Molecular Research Center, Cincinnati, OH, USA). […] For detection and quantification, a StepOnePlus Real-Time PCR System (Applied Biosystems, Foster City, CA, USA) was used with FastStart Universal SYBR Green Master (Roche, Basel, Switzerland). Real-time qPCR data were analyzed using the comparative CT method. […]

[4] = test system: RAW 264.7 macrophage cells; assay: Griess assay, LPS-induced NO production; type: cell-based; details: LPS (1 µg/mL), 24 h
Procedure: Griess assay (Promega) was performed under manufacturer’s instruction to measure the concentration of nitrite after inducing the inflammatory response in RAW 264.7 macrophage cells by LPS treatment. The well-known PPAR selective agonists, such as WY14643 (PPARα), GW501516 (PPAR-β/δ), and rosiglitazone (PPARγ), were used as positive controls.

[5] = test system: 5xFAD mice; assay: Soluble/insoluble Aβ extraction, western blot and filter-trap assay; type: in vivo; details: 10 mg/kg orally, 3 months
Procedure: as §1
To investigate soluble and insoluble Aβ components, two extraction steps were performed. Left hemisphere samples were homogenized in cold Tris-buffered saline (TBS consisting of 50 mM Tris-pH 7.5 and 150 mM NaCl) with a protease inhibitor cocktail (Thermo Fisher Scientific, Waltham, MO, USA) at a concentration of 100 mg/mL. After centrifugation at 15,000 rpm for 1 h at 4 °C, the supernatant of the samples was used to conduct western blotting. Insoluble protein was extracted from the pellet by dissolving in 5 M guanidine buffer (5 M guanidine HCl and 150 mM NaCl-pH 7.5). Soluble and insoluble protein samples were stored at −80 °C.
The insoluble fraction of protein lysates in 5xFAD mice was diluted in 1% SDS-PBS and boiled at 95 °C for 5 min. The membrane was pre-equilibrated with 1 × TBS. A dot blotter apparatus (Bio-Rad Laboratories, Hercules, CA, USA) was used for sample application, and 6e10 antibody was used to detect Aβ contents from brain lysates of 5xFAD mice treated with DTMB. […]

[6] = hippocampal brain lysates, 5xFAD mice

COc1ccc(-c2cc(=O)oc3c(C)c(OC(=O)[C@H](Cc4c[nH]c5ccccc45)NC(=O)OC(C)(C)C)ccc23)cc1 [DTMB]
expression levels of proinflammatory cytokines and related enzymes (Il-1β, Il-6, and Inos) ([1]; 5xFAD mouse brain, 10 mg/kg orally, 3 months): decreased | level of ASC [1, 6]: not changed significantly | protein level of NF-κB [1, 6]: decreased | protein level of NLRP3 [1, 6]: decreased | binding to PPAR LBD (pull-down, western blot) [2]: binds | protein level of β-secretase ([3]; cortex): slightly decreased | APP protein and mRNA level ([3]; hippocampus): neither changes | NO production (nitrite) [4]: reduced NO production in a concentration-dependent manner | inhibition of NO production compared between DTMB and known PPAR agonists [4]: inhibited NO production greater than treatment with the known agonists of PPARα and PPARγ | Aβ aggregates in the insoluble fraction ([5]; 5xFAD mice brain lysates): decreased | amyloid beta monomer ([5]; 5xFAD mice brain): not decreased

From paper PMC9606171, “Synthetic PPAR Agonist DTMB Alleviates Alzheimer’s Disease Pathology by Inhibition of Chronic Microglial Inflammation in 5xFAD Mice” (Neurotherapeutics, 2022)
